# Test results published in ChEMBL document CHEMBL1697692, “Developing structure-activity relationships for the prediction of hepatotoxicity” (Chem Res Toxicol, 2010).
# Structures can show the parent of a compound that is named as a salt. Bridge positions count the residues as written; N and C are the ends. Square brackets hold non-standard residues; d marks the D form. Peptide text beside a SMILES is read from it. * marks the point of attachment. Ileψ(thiazoline)Cys = CC[C@H](C)[C@H](N)C1=N[C@H](C(=O)*)CS1; dOrn = NCCC[C@@H](N)C(=O)O
# System: Hepatotoxicity
# Test: Literature-mined public compounds from Greene et al multi-species hepatotoxicity modelling dataset
row,SMILES,Hepatotoxicity
1,COc1cc(C)c(/C=C/C(C)=C/C=C/C(C)=C/C(=O)O)c(C)c1C [ACITRETIN],HH: Evidence of human hepatotoxicity
2,N[C@H](C(=O)O)[C@@H]1CC(Cl)=NO1 [ACIVICIN],NE: No evidence of hepatotoxicity in any species
3,CC[C@@]1(O)C[C@H](O[C@H]2C[C@H](N(C)C)[C@H](O[C@H]3C[C@H](O)[C@H](O[C@H]4CCC(=O)[C@H](C)O4)[C@H](C)O3)[C@H](C)O2)c2c(cc3c(c2O)C(=O)c2c(O)cccc2C3=O)[C@H]1C(=O)OC.Cl [ACLARUBICIN HYDROCHLORIDE],WE: Weak evidence (<10 case reports) of human hepatotoxicity
4,Nc1ncnc2c1ncn2[C@@H]1O[C@H](CO)[C@@H](O)[C@H]1O [ADENOSINE],NE: No evidence of hepatotoxicity in any species
5,COc1cc2c(c3oc(=O)c4c(c13)CCC4=O)[C@@H]1C=CO[C@@H]1O2 [AFLATOXIN],HH: Evidence of human hepatotoxicity
6,CCCSc1ccc2nc(NC(=O)OC)[nH]c2c1 [ALBENDAZOLE],HH: Evidence of human hepatotoxicity
7,Oc1ncnc2[nH]ncc12 [ALLOPURINOL],HH: Evidence of human hepatotoxicity
8,C=CCO [ALLYL ALCOHOL],HH: Evidence of human hepatotoxicity
9,C=CCOC=O [ALLYL FORMATE],HH: Evidence of human hepatotoxicity
10,CCCN(CCC)C(=O)Cc1c(-c2ccc(Cl)cc2)nc2ccc(Cl)cn12 [ALPIDEM],HH: Evidence of human hepatotoxicity
11,Cl.NC12CC3CC(CC(C3)C1)C2 [AMANTADINE HYDROCHLORIDE],NE: No evidence of hepatotoxicity in any species
12,Cl.N=C(N)NC(=O)c1nc(Cl)c(N)nc1N.O.O [AMILORIDE HYDROCHLORIDE],NE: No evidence of hepatotoxicity in any species
13,Cl.O=C(O)CCCCCCNC1c2ccccc2CCc2ccccc21 [AMINEPTINE HYDROCHLORIDE],HH: Evidence of human hepatotoxicity
14,Nc1ccc(C(=O)[O-])cc1.[K+] [AMINOBENZOATE POTASSIUM],NE: No evidence of hepatotoxicity in any species
15,NCCCCCC(=O)O [AMINOCAPROIC ACID],NE: No evidence of hepatotoxicity in any species
16,CCC1(c2ccc(N)cc2)CCC(=O)NC1=O (stereo not given) [AMINOGLUTETHIMIDE],NE: No evidence of hepatotoxicity in any species
17,Nc1ccc(C(=O)O)c(O)c1 [AMINOSALICYLIC ACID],HH: Evidence of human hepatotoxicity
18,CCCCc1oc2ccccc2c1C(=O)c1cc(I)c(OCCN(CC)CC)c(I)c1 [AMIODARONE],HH: Evidence of human hepatotoxicity
19,CN(C)CCC=C1c2ccccc2CCc2ccccc21.Cl [AMITRIPTYLINE HYDROCHLORIDE],WE: Weak evidence (<10 case reports) of human hepatotoxicity
20,Cl.N [AMMONIUM CHLORIDE],NE: No evidence of hepatotoxicity in any species

row,SMILES,Hepatotoxicity
1,Clc1ccc2c(c1)C(N1CCNCC1)=Nc1ccccc1O2 [AMOXAPINE],WE: Weak evidence (<10 case reports) of human hepatotoxicity
2,CC1(C)S[C@@H]2[C@H](NC(=O)[C@H](N)c3ccc(O)cc3)C(=O)N2[C@H]1C(=O)O [AMOXICILLIN],WE: Weak evidence (<10 case reports) of human hepatotoxicity
3,C[C@@H]1[C@H](O)[C@@H](C)/C=C/C=C/C=C/C=C/C=C/C=C/C=C/[C@H](O[C@@H]2O[C@H](C)[C@@H](O)[C@H](N)[C@@H]2O)C[C@@H]2O[C@](O)(C[C@@H](O)C[C@@H](O)[C@H](O)CC[C@@H](O)C[C@@H](O)CC(=O)O[C@H]1C)C[C@H](O)[C@H]2C(=O)O [AMPHOTERICIN B],WE: Weak evidence (<10 case reports) of human hepatotoxicity
4,COc1cc(NS(C)(=O)=O)ccc1Nc1c2ccccc2nc2ccccc12.Cl [AMSACRINE HYDROCHLORIDE],HH: Evidence of human hepatotoxicity
5,CCOC(=O)C1(c2ccccc2)CCN(CCc2ccc(N)cc2)CC1.Cl [ANILERIDINE HYDROCHLORIDE],NE: No evidence of hepatotoxicity in any species
6,N=C(N)NCCC[C@H](N)C(=O)O [ARGININE],NE: No evidence of hepatotoxicity in any species
7,O=[As][As+](=O)[O-] (stereo not given) [ARSENIC TRIOXIDE],HH: Evidence of human hepatotoxicity
8,O=C1O[C@H]([C@@H](O)CO)C(O)=C1O [ASCORBIC ACID],NE: No evidence of hepatotoxicity in any species
9,COc1ccc(CCN2CCC(Nc3nc4ccccc4n3Cc3ccc(F)cc3)CC2)cc1 [ASTEMIZOLE],NE: No evidence of hepatotoxicity in any species
10,CC(C)NCC(O)COc1ccc(CC(N)=O)cc1 (stereo not given) [ATENOLOL],NE: No evidence of hepatotoxicity in any species
11,CNCC[C@@H](Oc1ccccc1C)c1ccccc1 [ATOMOXETINE],HH: Evidence of human hepatotoxicity
12,C=C1[C@@H]2CCC3[C@@](CC[C@@H]4[C@H](C(=O)O)C[C@@H](O[C@@H]5O[C@H](CO)[C@@H](OS(=O)(=O)[O-])[C@H](OS(=O)(=O)[O-])[C@H]5OC(=O)CC(C)C)C[C@@]34C)(C2)[C@@H]1O.[K+].[K+] (stereo not given in full) [ATRACTYLOSIDE],HH: Evidence of human hepatotoxicity
13,Nc1ncn([C@@H]2O[C@H](CO)[C@@H](O)[C@H]2O)c(=O)n1 [AZACITIDINE],HH: Evidence of human hepatotoxicity
14,Cl.Cl.O=C(CCN1CCN2CCCC2C1)N1c2ccccc2Sc2ccc(Cl)cc21 (stereo not given) [AZACLORZINE HYDROCHLORIDE],HH: Evidence of human hepatotoxicity
15,[N-]=[N+]=CC(=O)OC[C@H](N)C(=O)O [AZASERINE],AH: Evidence for animal hepatotoxicity but not tested in humans
16,CN1CCC(=C2c3ccccc3CCc3cccnc32)CC1.O=C(O)/C=C\C(=O)O.O=C(O)/C=C\C(=O)O [AZATADINE MALEATE],HH: Evidence of human hepatotoxicity
17,Cn1cnc([N+](=O)[O-])c1Sc1ncnc2nc[nH]c12 [AZATHIOPRINE],HH: Evidence of human hepatotoxicity
18,CC[C@H]1OC(=O)[C@H](C)[C@@H](O[C@H]2C[C@@](C)(OC)[C@@H](O)[C@H](C)O2)[C@H](C)[C@@H](O[C@@H]2O[C@H](C)C[C@H](N(C)C)[C@H]2O)[C@](C)(O)C[C@@H](C)CN(C)[C@H](C)[C@@H](O)[C@]1(C)O [AZITHROMYCIN],WE: Weak evidence (<10 case reports) of human hepatotoxicity
19,CC1(C)S[C@@H]2[C@H](NC(=O)[C@H](NC(=O)N3CCNC3=O)c3ccccc3)C(=O)N2[C@H]1C(=O)[O-].[Na+] [AZLOCILLIN SODIUM],NE: No evidence of hepatotoxicity in any species
20,C[C@H]1[C@H](NC(=O)/C(=N\OC(C)(C)C(=O)O)c2csc(N)n2)C(=O)N1S(=O)(=O)O [AZTREONAM],NE: No evidence of hepatotoxicity in any species

row,SMILES,Hepatotoxicity
1,CC[C@H](C)[C@H](N)C1=N[C@H](C(=O)N[C@@H](CC(C)C)C(=O)N[C@H](CCC(=O)O)C(=O)N[C@H](C(=O)N[C@H]2CCCCNC(=O)[C@H](CC(N)=O)NC(=O)[C@@H](CC(=O)O)NC(=O)[C@H](Cc3cnc[nH]3)NC(=O)[C@@H](Cc3ccccc3)NC(=O)[C@H]([C@@H](C)CC)NC(=O)[C@@H](CCCN)NC2=O)[C@@H](C)CC)CS1 [BACITRACIN] ({Ileψ(thiazoline)Cys}-L[dE]IK[dOrn]I[dF]H[dD]N; lactam 4-C),NE: No evidence of hepatotoxicity in any species
2,CN(C)C(=O)Oc1cc(OC(=O)N(C)C)cc(C(O)CNC(C)(C)C)c1 (stereo not given) [BAMBUTEROL],NE: No evidence of hepatotoxicity in any species
3,CCC(=O)OCC(=O)[C@@]1(OC(=O)CC)[C@@H](C)C[C@H]2[C@@H]3CCC4=CC(=O)C=C[C@]4(C)[C@@]3(Cl)[C@@H](O)C[C@@]21C [BECLOMETHASONE DIPROPIONATE],NE: No evidence of hepatotoxicity in any species
4,CCOC(=O)[C@H](CCc1ccccc1)N[C@H]1CCc2ccccc2N(CC(=O)O)C1=O [BENAZEPRIL],WE: Weak evidence (<10 case reports) of human hepatotoxicity
5,CC(C(=O)O)c1ccc2oc(-c3ccc(Cl)cc3)nc2c1 (stereo not given) [BENOXAPROFEN],HH: Evidence of human hepatotoxicity
6,CCc1oc2ccccc2c1C(=O)c1cc(Br)c(O)c(Br)c1 [BENZBROMARONE],HH: Evidence of human hepatotoxicity
7,CC(C)COCC(CN(Cc1ccccc1)c1ccccc1)N1CCCC1.Cl.O (stereo not given) [BEPRIDIL HYDROCHLORIDE],HH: Evidence of human hepatotoxicity
8,CNCCc1ccccn1.Cl.Cl [BETAHISTINE HYDROCHLORIDE],HH: Evidence of human hepatotoxicity
9,C[N+](C)(C)CC(=O)O.[Cl-] [BETAINE HYDROCHLORIDE],NE: No evidence of hepatotoxicity in any species
10,C[C@H]1C[C@H]2[C@@H]3CCC4=CC(=O)C=C[C@]4(C)[C@@]3(F)[C@@H](O)C[C@]2(C)[C@@]1(O)C(=O)CO [BETAMETHASONE],NE: No evidence of hepatotoxicity in any species
11,CC(C)(Oc1ccc(CCNC(=O)c2ccc(Cl)cc2)cc1)C(=O)O [BEZAFIBRATE],NE: No evidence of hepatotoxicity in any species
12,CC(O)(CS(=O)(=O)c1ccc(F)cc1)C(=O)Nc1ccc(C#N)c(C(F)(F)F)c1 (stereo not given) [BICALUTAMIDE],HH: Evidence of human hepatotoxicity
13,O=C(O)CCCC[C@@H]1SC[C@@H]2NC(=O)N[C@@H]21 [BIOTIN],NE: No evidence of hepatotoxicity in any species
14,CCCC[C@@H](CC)COC(=O)c1ccccc1C(=O)OC[C@@H](CC)CCCC [BIS(2-ETHYLHEXYL)PHTHALATE],AH: Evidence for animal hepatotoxicity but not tested in humans
15,Oc1c(Cl)cc(Cl)cc1Sc1cc(Cl)cc(Cl)c1O [BITHIONOL],HH: Evidence of human hepatotoxicity
16,COc1ccccc1Oc1c(NS(=O)(=O)c2ccc(C(C)(C)C)cc2)nc(-c2ncccn2)nc1OCCO [BOSENTAN],HH: Evidence of human hepatotoxicity
17,Nc1c(CC(=O)O)cccc1C(=O)c1ccc(Br)cc1 [BROMFENAC],HH: Evidence of human hepatotoxicity
18,Brc1ccccc1 [BROMOBENZENE],HH: Evidence of human hepatotoxicity
19,NCCBr [BROMOETHANAMINE],AH: Evidence for animal hepatotoxicity but not tested in humans
20,CN(C)CCC(c1ccc(Br)cc1)c1ccccn1.O=C(O)/C=C\C(=O)O (stereo not given) [BROMPHENIRAMINE MALEATE],NE: No evidence of hepatotoxicity in any species
